Measured values as given in paper PMC11066040, “Nuclear phosphoinositide signaling promotes YAP/TAZ-TEAD transcriptional activity in breast cancer” (The EMBO Journal, 2024).

Tests used:
[1] = biological target: T1, GST-YAP (Homo sapiens, UniProt P46937); assay: microscale thermophoresis; type: binding
T1 construct: gene YAP1

[2] = biological target: T1, GST-YAP; assay: microscale thermophoresis; type: binding; settings: pH 8.0, 50 mM NaCl, 80 mM KCl, 0.05% Tween-20; fluorescently labeled GST-YAP

T1 sequence (P46937 whole entry): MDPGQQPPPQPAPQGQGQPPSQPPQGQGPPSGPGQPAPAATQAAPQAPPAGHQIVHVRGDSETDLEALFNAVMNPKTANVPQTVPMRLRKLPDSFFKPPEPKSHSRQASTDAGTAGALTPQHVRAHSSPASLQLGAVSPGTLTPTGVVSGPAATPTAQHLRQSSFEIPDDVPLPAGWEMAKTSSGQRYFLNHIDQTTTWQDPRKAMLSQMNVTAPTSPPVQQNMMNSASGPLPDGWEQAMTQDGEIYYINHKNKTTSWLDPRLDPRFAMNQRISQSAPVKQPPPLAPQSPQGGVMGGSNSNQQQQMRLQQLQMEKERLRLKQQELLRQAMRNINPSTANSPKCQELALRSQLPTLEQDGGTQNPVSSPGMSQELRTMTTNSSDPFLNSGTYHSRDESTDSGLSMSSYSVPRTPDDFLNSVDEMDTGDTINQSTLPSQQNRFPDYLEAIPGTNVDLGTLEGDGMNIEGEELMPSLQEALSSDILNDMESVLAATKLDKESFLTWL

Row | Compound | Kd [1] | binding [2]
1 | CCCCC/C=C\C/C=C\C/C=C\C/C=C\CCCC(=O)O[C@H](COC(=O)CCCCCCCCCCCCCCCCC)COP(=O)(O)O[C@@H]1[C@H](O)[C@H](O)[C@@H](OP(=O)(O)O)[C@H](OP(=O)(O)O)[C@H]1O [PI(4,5)P2] | 166 ± 13.5 nM | 
2 | CCCCC/C=C\C/C=C\C/C=C\C/C=C\CCCC(=O)O[C@H](COC(=O)CCCCCCCCCCCCCCCCC)COP(=O)(O)O[C@@H]1[C@H](O)[C@H](O)[C@@H](O)[C@H](O)[C@H]1O [PI] |  | No significant binding of GST-YAP with PI was detected
3 | CCCCC/C=C\C/C=C\C/C=C\C/C=C\CCCC(=O)O[C@H](COC(=O)CCCCCCCCCCCCCCCCC)COP(=O)(O)O[C@H]1[C@H](O)[C@@H](OP(=O)(O)O)[C@H](OP(=O)(O)O)[C@@H](OP(=O)(O)O)[C@H]1O [PI(3,4,5)P3] | 8.13 ± 2.63 nM | 
